According to patent publication US8952054B2, “Small molecule inhibitors of MUC1 and methods of identifying the same” (Dana-Farber Cancer Institute, Inc., priority 2010, dated 2015):

Experiments:
MUC1 promoter = test: MUC1-C occupancy on the MUC1 promoter; format: cell-based
His-MUC1-CD = molecular target: T1, His-MUC1-CD (Homo sapiens, UniProt P15941); test: BIAcore binding of peptides to immobilized His-MUC1-CD
T1 construct: made in house
T1 sequence (P15941 1184-1255): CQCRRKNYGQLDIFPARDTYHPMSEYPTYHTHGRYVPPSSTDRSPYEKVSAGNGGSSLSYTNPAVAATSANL
Description: FIGS. 1A-D. MUC1/CQC peptide blocks MUC1 oligomerization. (FIG. 1A) Schematic representation of the MUC1-C subunit and the 72-amino acid sequence of MUC1-CD (SEQ ID NO: 1) are shown. The N-terminal 15 amino acids (shaded sequence) MUC1/CQC (SEQ ID NO: 10) and mutated MUC1/AQA (SEQ ID NO: 11) peptides were synthesized with the poly-dArg transduction domain. (FIG. 1B) His-MUC1-CD (1.4 mg/ml) was immobilized on a sensor chip in a BIAcore. MUC1/CQC was injected over the chip at 10 μM. Raw binding data were analyzed by BIAevaluation software version 3.0 and fit to a 1:1 Languir binding model. (FIG. 1C) Purified His-MUC1-CD (1.5 mg/ml) was incubated with PBS, 200 μM MUC1/CQC or 200 μM MUC1/AQA for 1 h at room temperature. The proteins were separated in a non-reducing SDS-polyacrylamide gel and analyzed by immunoblotting with anti-MUC1-C. (FIG. 1D) 293 cells were transiently transfected to express an empty vector or GFP-MUC1-CD and Flag-MUC1-CD. At 48 h after transfection, the cells were treated with 5 μM MUC1/CQC or MUC1/AQA for 3 d. The cells were then harvested for immunoblotting with anti-MUC1-C (left panel). […]
The MUC1 cytoplasmic domain (MUC1-CD) contains a CQC motif that is necessary for the formation of oligomers and nuclear localization (Leng et al., 2007). […] Purified His-tagged MUC1-CD forms oligomers as detected by electrophoresis in polyacrylamide gels (FIG. 1C). […]

MUC1-C = molecular target: T2, MUC1-C (Homo sapiens, UniProt P15941); test: Immunoblot of whole cell and nuclear MUC1-C levels in ZR-75-1 cells; format: cell-based; set-up: Human ZR-75-1 and MCF-7 breast cancer cells overexpress endogenous MUC1; endogenous in cells; host or cells: ZR-75-1; MCF-7; conditions: ZR-75-1, 5 μM peptide, 3 d; for nuclear MUC1-C levels: nuclear lysates; for cellular MUC1-C levels: whole cell lysates
T2 sequence (P15941 1098-1255 limits assumed): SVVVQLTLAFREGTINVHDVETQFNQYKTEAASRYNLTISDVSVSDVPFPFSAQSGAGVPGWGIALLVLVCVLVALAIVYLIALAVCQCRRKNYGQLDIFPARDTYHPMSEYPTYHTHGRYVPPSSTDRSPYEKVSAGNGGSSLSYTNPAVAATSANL
Description: FIGS. 2A-C. MUC1/CQC peptide blocks nuclear localization of MUC1-C. (FIG. 2A) ZR-75-1 cells were incubated with 5 μM FITC-labeled MUC1/CQC peptide for the indicated times and then analyzed by flow cytometry. The mean fluorescence index (MFI) is included in each of the panels. (FIGS. 2B-C) ZR-75-1 (FIG. 2B) and MCF-7 (FIG. 2C) cells were incubated in the presence of 5 μM MUC1/CQC or MUC1/AQA peptide for 3 d. Whole cell lysates (WCL) (left panels) and nuclear lysates (right panels) were immunoblotted with the indicated antibodies.
Whole cell and nuclear lysates were prepared as described (Leng et al., 2007). Soluble proteins were subjected to immunoprecipitation with anti-Flag (Sigma, St. Louis, Mo.). Immunoprecipitates and soluble proteins were analyzed by immunoblotting with anti-His (Cell Signaling Technology, Danvers, Mass.), anti-GFP (Millipore, Danvers, Mass.), anti-Flag, anti-MUC1-C (Ab1; NeoMarkers, Fremont, Calif.), anti-lamin B (EMD, La Jolla, Calif.) or anti-β-actin (Sigma). Reactivity was detected with horseradish peroxidase-conjugated second antibodies and chemiluminescence.

## O=c1cc(-c2ccc(O)cc2)oc2cc(O)cc(O)c12 [Apigenin, 4′,5,7-trihydroxyflavone]
MUC1 promoter
  MUC1-C occupancy on the MUC1 promoter: blocked MUC1-C occupancy on the MUC1 promoter

## O=c1cc(-c2ccccc2)oc2cc(O)c(O)c(O)c12 [Baicalein, 5,6,7-trihydroxyflavone, reference compound]
MUC1 promoter
  MUC1-C occupancy on the MUC1 promoter: not

## CC[C@H](C)[C@H](NC(=O)[C@H](CC(=O)O)NC(=O)[C@H](CC(C)C)NC(=O)[C@H](CCC(N)=O)NC(=O)CNC(=O)[C@H](Cc1ccc(O)cc1)NC(=O)[C@H](CC(N)=O)NC(=O)[C@H](CCCCN)NC(=O)[C@H](CCCNC(=N)N)NC(=O)[C@H](CCCNC(=N)N)NC(=O)[C@H](CS)NC(=O)[C@H](CCC(N)=O)NC(=O)[C@H](CS)NC(=O)[C@@H](CCCNC(=N)N)NC(=O)[C@@H](CCCNC(=N)N)NC(=O)[C@@H](CCCNC(=N)N)NC(=O)[C@@H](CCCNC(=N)N)NC(=O)[C@@H](CCCNC(=N)N)NC(=O)[C@@H](CCCNC(=N)N)NC(=O)[C@@H](CCCNC(=N)N)NC(=O)[C@@H](CCCNC(=N)N)NC(=O)[C@H](N)CCCNC(=N)N)C(=O)N[C@@H](Cc1ccccc1)C(=O)N1CCC[C@H]1C(=O)O [MUC1/CQC]
His-MUC1-CD; His-tagged MUC1-CD immobilized on BIAcore sensor chip, peptide injected at 10 μM, 1:1 binding model, read-out: dissociation constant (Kd)
  Kd: 30 nM
MUC1-C
  nuclear MUC1-C levels: decreases in nuclear MUC1-C levels
  cellular MUC1-C levels: no effect

## MUC1/AQA: control peptide in which the CQC motif was altered to AQA (SEQ ID NO: 11) (AQARRKNYGQLDIFP) [reference compound]
His-MUC1-CD; BIAcore, data not shown
  binding to His-MUC1-CD: no apparent binding
MUC1-C
  nuclear MUC1-C levels: not
  cellular MUC1-C levels: no effect
